Source: ChEMBL document CHEMBL4622878, “Cytotoxic Activity of Germacrane-Type Sesquiterpene Lactones from Dimerostemma aspilioides” (J Nat Prod, 2020)
Active and inactive are the calls of the source. The rule behind the calls is not given here.

How the values were obtained:
K562 [1] = assay: Induction of cell cycle arrest in human K562 cells at 2.3 uM after 48 hrs by propidium iodide staining based flow cytometric analysis; format: functional
K562 [2] = assay: Cytotoxicity against human K562 cells after 48 hrs by MTT assay; format: functional, cell-based; conditions: K562, 48 h
K562 [3] = assay: Induction of apoptosis in human K562 cells assessed as early apoptotic cells at 2.3 uM after 48 hrs by Annexin V-FITC/PI double staining based flow cytometry analysis (reference value: 1.67%); format: functional
K562-Lucena 1 [4] = assay: Induction of morphological changes in human K562-Lucena 1 cells assessed as appearance of apoptotic bodies at 5.1 uM incubated for 48 hrs by DAPI staining based fluorescence microscopy; format: functional, cell-based
K562-Lucena 1 [5] = assay: Induction of cell cycle arrest in human K562-Lucena 1 cells assessed as necrotic cells at 5.1 uM after 48 hrs by propidium iodide staining based flow cytometric analysis (reference value: 2.15%); format: functional
K562-Lucena 1 [6] = assay: Induction of cell cycle arrest in human K562-Lucena 1 cells assessed as viable cells at 5.1 uM after 24 hrs by propidium iodide staining based flow cytometric analysis (reference value: 88%); format: functional; conditions: K562-Lucena 1, 24 h, read-out: Activity
K562 [7] = assay: Induction of apoptosis in human K562 cells assessed as viable cells at 2.3 uM after 24 hrs by Annexin V-FITC/PI double staining based flow cytometry analysis (Rvb =96.4%); format: functional; conditions: K562, 24 h, read-out: Activity
K562 [8] = assay: Induction of apoptosis in human K562 cells assessed as late apoptotic cells at 2.3 uM after 48 hrs by Annexin V-FITC/PI double staining based flow cytometry analysis (reference value: 0.41%); format: functional
K562 [9] = assay: Induction of cell cycle arrest in human K562 cells assessed as decrease in accumulation of cells at S phase at 2.3 uM after 24 hrs by propidium iodide staining based flow cytometric analysis; format: functional
ADR5000 cell line = assay: Cytotoxicity against human CEM/ADR5000 cells after 48 hrs by MTT assay; format: functional, cell-based; conditions: ADR5000, 48 h
K562-Lucena 1 [10] = assay: Induction of cell cycle arrest in human K562-Lucena 1 cells assessed as late apoptotic cells at 5.1 uM after 24 hrs by propidium iodide staining based flow cytometric analysis (reference value: 3.15%); format: functional
K562-Lucena 1 [11] = assay: Cytotoxicity against human K562-Lucena 1 cells after 48 hrs by MTT assay; format: functional, cell-based; conditions: K562-Lucena 1, 48 h
K562 [12] = assay: Induction of cell cycle arrest in human K562 cells assessed as increase in hypodiploid cells at sub-G1 phase at 2.3 uM after 48 hrs by propidium iodide staining based flow cytometric analysis; format: functional
K562-Lucena 1 [13] = assay: Induction of cell cycle arrest in human K562-Lucena 1 cells assessed as viable cells at 5.1 uM after 48 hrs by propidium iodide staining based flow cytometric analysis (reference value: 87.1%); format: functional; conditions: K562-Lucena 1, 48 h, read-out: Activity
K562 [14] = assay: Induction of apoptosis in human K562 cells assessed as viable cells at 2.3 uM after 48 hrs by Annexin V-FITC/PI double staining based flow cytometry analysis (Rvb =97.8%); format: functional; conditions: K562, 48 h, read-out: Activity
K562 [15] = assay: Induction of morphological changes in human K562 cells assessed as appearance of apoptotic bodies at 2.3 uM incubated for 48 hrs by DAPI staining based fluorescence microscopy; format: functional, cell-based
K562-Lucena 1 [16] = assay: Induction of cell cycle arrest in human K562-Lucena 1 cells assessed as accumulation of cells at G2/M phase at 5.1 uM after 24 hrs by propidium iodide staining based flow cytometric analysis (reference value: 3.3 +/- 0.1%); format: functional
K562 [17] = assay: Induction of apoptosis in human K562 cells assessed as necrotic cells at 2.3 uM after 24 hrs by Annexin V-FITC/PI double staining based flow cytometry analysis (reference value: 0.085%); format: functional
K562-Lucena 1 [18] = assay: Induction of cell cycle arrest in human K562-Lucena 1 cells at 5.1 uM after 48 hrs by propidium iodide staining based flow cytometric analysis; format: functional
K562-Lucena 1 [19] = assay: Induction of cell cycle arrest in human K562-Lucena 1 cells assessed as necrotic cells at 5.1 uM after 24 hrs by propidium iodide staining based flow cytometric analysis (reference value: 1.03%); format: functional
K562 [20] = assay: Induction of cell cycle arrest in human K562 cells assessed as decrease in accumulation of cells at G1 phase at 2.3 uM after 24 hrs by propidium iodide staining based flow cytometric analysis; format: functional
K562 [21] = assay: Induction of DNA fragmentation in human K562 cells at 2.3 uM incubated for 48 hrs by DAPI staining based fluorescence microscopy; format: functional, cell-based
K562-Lucena 1 [22] = assay: Induction of DNA fragmentation in human K562-Lucena 1 cells at 5.1 uM incubated for 48 hrs by DAPI staining based fluorescence microscopy; format: functional, cell-based
K562-Lucena 1 [23] = assay: Induction of cell cycle arrest in human K562-Lucena 1 cells assessed as late apoptotic cells at 5.1 uM after 48 hrs by propidium iodide staining based flow cytometric analysis (reference value: 3.23%); format: functional
PBMC = assay: Cytotoxicity against PBMC (unknown origin) after 48 hrs by MTT assay; format: cell-based
K562-Lucena 1 [24] = assay: Induction of cell cycle arrest in human K562-Lucena 1 cells assessed as increase in hypodiploid cells at sub-G1 phase at 5.1 uM after 48 hrs by propidium iodide staining based flow cytometric analysis; format: functional
K562 [25] = assay: Induction of apoptosis in human K562 cells assessed as late apoptotic cells at 2.3 uM after 24 hrs by Annexin V-FITC/PI double staining based flow cytometry analysis (reference value: 0.79%); format: functional
K562-Lucena 1 [26] = assay: Induction of cell cycle arrest in human K562-Lucena 1 cells assessed as early apoptotic cells at 5.1 uM after 24 hrs by propidium iodide staining based flow cytometric analysis (reference value: 7.79%); format: functional
K562-Lucena 1 [27] = assay: Induction of cell cycle arrest in human K562-Lucena 1 cells assessed as early apoptotic cells at 5.1 uM after 48 hrs by propidium iodide staining based flow cytometric analysis (reference value: 7.57%); format: functional
K562 [28] = assay: Induction of morphological changes in human K562 cells assessed as appearance of condensed chromatin at 2.3 uM incubated for 48 hrs by DAPI staining based fluorescence microscopy; format: functional, cell-based
K562-Lucena 1 [29] = assay: Induction of cell cycle arrest in human K562-Lucena 1 cells assessed as decrease in accumulation of cells at G1 phase at 5.1 uM after 24 hrs by propidium iodide staining based flow cytometric analysis; format: functional
CCRF-CEM = assay: Cytotoxicity against human CCRF-CEM cells after 48 hrs by MTT assay; format: functional, cell-based
K562 [30] = assay: Induction of apoptosis in human K562 cells assessed as early apoptotic cells at 2.3 uM after 24 hrs by Annexin V-FITC/PI double staining based flow cytometry analysis (reference value: 2.76%); format: functional
K562 [31] = assay: Induction of apoptosis in human K562 cells assessed as necrotic cells at 2.3 uM after 48 hrs by Annexin V-FITC/PI double staining based flow cytometry analysis (reference value: 0.13%); format: functional
K562 [32] = assay: Induction of cell cycle arrest in human K562 cells assessed as accumulation of cells at G2/M phase at 2.3 uM after 24 hrs by propidium iodide staining based flow cytometric analysis (reference value: 0.4 +/- 0.2%); format: functional
K562-Lucena 1 [33] = assay: Induction of morphological changes in human K562-Lucena 1 cells assessed as appearance of condensed chromatin at 5.1 uM incubated for 48 hrs by DAPI staining based fluorescence microscopy; format: functional, cell-based

How did the Activity (K562 [1]) turn out when C=C(C)C(=O)O[C@H]1C/C(CO)=C/CC[C@@]2(C)O[C@H]2[C@H]2OC(=O)C(=C)[C@@H]21 was run?
Its Activity is “inactive”.

What about the IC50 (K562 [2]) of the same compound?
Its IC50 is 2300 nM.

And the Activity (K562 [3])?
Its Activity is 30.6%.

What about the Activity (K562-Lucena 1 [4]) of the same compound?
Its Activity is “Active”.

What about the Activity (K562-Lucena 1 [5]) of the same compound?
The Activity was 3.29%.

And the viability at 5.1 µM (K562-Lucena 1 [6])?
The viability at 5.1 µM was 80.4%.

And the viability at 2.3 µM (K562 [7])?
Its viability at 2.3 µM is 96.7%.

And the Activity (K562 [8])?
Its Activity is 2.38%.

And the Activity (K562 [9])?
Its Activity is “inactive”.

What about the IC50 (ADR5000 cell line) of the same compound?
The IC50 was 400 nM.

And the Activity (K562-Lucena 1 [10])?
The Activity was 3.46%.

What about the IC50 (K562-Lucena 1 [11]) of the same compound?
Its IC50 is 5100 nM.

And the Activity (K562 [12])?
The Activity was “Active”.

What about the viability at 5.1 µM (K562-Lucena 1 [13]) of the same compound?
Its viability at 5.1 µM is 54.5%.

And the viability at 2.3 µM (K562 [14])?
The viability at 2.3 µM was 66.4%.

What about the Activity (K562 [15]) of the same compound?
Its Activity is “Active”.

And the Activity (K562-Lucena 1 [16])?
The Activity was 23.2%.

What about the Activity (K562 [17]) of the same compound?
The Activity was 0.42%.

What about the Activity (K562-Lucena 1 [18]) of the same compound?
The Activity was “inactive”.

What about the Activity (K562-Lucena 1 [19]) of the same compound?
Its Activity is 1.38%.

What about the Activity (K562 [20]) of the same compound?
Its Activity is “inactive”.

What about the Activity (K562 [21]) of the same compound?
Its Activity is “Active”.

What about the Activity (K562-Lucena 1 [22]) of the same compound?
Its Activity is “Active”.

And the Activity (K562-Lucena 1 [23])?
The Activity was 10.8%.

What about the IC50 (PBMC) of the same compound?
Its IC50 is 79900 nM.

And the Activity (K562-Lucena 1 [24])?
Its Activity is “Active”.

And the Activity (K562 [25])?
The Activity was 0.64%.

And the Activity (K562-Lucena 1 [26])?
Its Activity is 14.7%.

And the Activity (K562-Lucena 1 [27])?
The Activity was 31.4%.

And the Activity (K562 [28])?
Its Activity is “Active”.

What about the Activity (K562-Lucena 1 [29]) of the same compound?
Its Activity is “Active”.

What about the IC50 (CCRF-CEM) of the same compound?
The IC50 was 420 nM.

And the Activity (K562 [30])?
Its Activity is 2.26%.

And the Activity (K562 [31])?
The Activity was 0.56%.

What about the Activity (K562 [32]) of the same compound?
Its Activity is 15.1%.

And the Activity (K562-Lucena 1 [33])?
The Activity was “Active”.
